pIC50, pKi: −log10 of the molar value.
Tests used:
[1] = molecular target: T1, Alpha-2C adrenergic receptor (Homo sapiens, UniProt P18825); assay: DRUGMATRIX: Adrenergic Alpha-2C radioligand binding (ligand: [3H] MK-912); type: cell membranes, Sf9, Membrane; conditions: for IC50: sf9; for pIC50: read-out: IC50; for pKi: read-out: Ki
T1 sequence (P18825 whole entry): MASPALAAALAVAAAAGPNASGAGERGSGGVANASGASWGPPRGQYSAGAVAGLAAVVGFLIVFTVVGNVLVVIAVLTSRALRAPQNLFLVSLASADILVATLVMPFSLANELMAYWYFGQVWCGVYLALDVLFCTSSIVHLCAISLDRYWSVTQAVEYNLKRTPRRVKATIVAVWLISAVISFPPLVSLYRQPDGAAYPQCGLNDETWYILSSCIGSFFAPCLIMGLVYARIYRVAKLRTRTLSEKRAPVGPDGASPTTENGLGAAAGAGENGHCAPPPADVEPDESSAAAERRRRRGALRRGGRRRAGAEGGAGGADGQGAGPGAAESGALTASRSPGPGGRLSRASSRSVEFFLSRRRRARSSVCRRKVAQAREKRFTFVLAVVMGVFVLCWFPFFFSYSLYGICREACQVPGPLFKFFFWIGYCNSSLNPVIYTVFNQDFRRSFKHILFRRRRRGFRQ

[2] = DRUGMATRIX: Sigma2 radioligand binding (ligand: [3H] Ifenprodil); type: cell membranes, Rattus norvegicus, Wistar, Brain, Membrane; conditions: Not Active = under 50% inhibition at 10 µM
[3] = DRUGMATRIX: Phosphodiesterase PDE3 enzyme inhibition (substrate: [3H]cAMP + cAMP); type: tissue-based, Homo sapiens; conditions: platelet, Not Active = under 50% inhibition at 10 µM
[4] = DRUGMATRIX: Phosphodiesterase PDE4 enzyme inhibition (substrate: [3H]cAMP + cAMP); conditions: u-937; Not Active = under 50% inhibition at 10 µM
Adenosine receptor A1 = molecular target: T2, Adenosine receptor A1 (Homo sapiens, UniProt P30542); type: cell membranes, CHO, Membrane; conditions: cho;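 further: radioligand binding assay at the adenosine A1 receptor, with DPCPX serving as the labelled ligand; in other assays of this panel Not Active means under 50% inhibition at 10 µM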
T2 sequence (P30542 whole entry): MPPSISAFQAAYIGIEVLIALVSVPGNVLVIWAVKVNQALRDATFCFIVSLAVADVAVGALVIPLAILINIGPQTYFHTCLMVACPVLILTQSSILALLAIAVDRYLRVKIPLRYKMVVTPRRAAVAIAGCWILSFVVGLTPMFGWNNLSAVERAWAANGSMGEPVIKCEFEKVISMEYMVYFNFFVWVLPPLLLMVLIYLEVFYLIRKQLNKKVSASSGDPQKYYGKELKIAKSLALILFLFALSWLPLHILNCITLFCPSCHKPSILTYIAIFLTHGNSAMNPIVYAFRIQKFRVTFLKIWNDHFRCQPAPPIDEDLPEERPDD

Row | Compound | IC50 [1] | IC50 [2] | Ki [2] | IC50 [3] | Ki [3] | IC50 [4] | Ki [4] | IC50 (Adenosine receptor A1) | pIC50 ([2]; read-out: IC50) | pKi ([2]; read-out: Ki) | pIC50 [1] | pKi [1] | pIC50 ([3]; read-out: IC50)
1 | CCC(=O)O[C@]1(C(=O)CCl)[C@@H](C)C[C@H]2[C@@H]3CCC4=CC(=O)C=C[C@]4(C)[C@@]3(F)[C@@H](O)C[C@@]21C [CLOBETASOL PROPIONATE] | Not Active | Not Active | Not Active | Not Active | Not Active | Not Active | Not Active | Not Active |  |  |  |  | 
2 | O=C1CN=C(c2ccccc2Cl)c2cc([N+](=O)[O-])ccc2N1 [CLONAZEPAM] | Not Active | Not Active | Not Active | Not Active | Not Active | Not Active | Not Active | Not Active |  |  |  |  | 
3 | Nc1ccn([C@@H]2O[C@H](CO)[C@@H](O)[C@@H]2O)c(=O)n1 [CYTARABINE] | Not Active | Not Active | Not Active | Not Active | Not Active | Not Active | Not Active | Not Active |  |  |  |  | 
4 | C[C@@H]1C[C@H]2[C@@H]3CCC4=CC(=O)C=C[C@]4(C)[C@@]3(F)[C@@H](O)C[C@]2(C)[C@H]1C(=O)CO [DESOXIMETASONE] | Not Active | Not Active | Not Active | Not Active | Not Active | Not Active | Not Active | Not Active |  |  |  |  | 
5 | C[C@@H]1C[C@H]2[C@@H]3CCC4=CC(=O)C=C[C@]4(C)[C@@]3(F)[C@@H](O)C[C@]2(C)[C@@]1(O)C(=O)CO [DEXAMETHASONE] | Not Active | Not Active | Not Active | Not Active | Not Active | Not Active | Not Active | Not Active |  |  |  |  | 
6 | CN(C)CC[C@@H](c1ccc(Cl)cc1)c1ccccn1 [DEXCHLORPHENIRAMINE] | Not Active |  |  | Not Active | Not Active | Not Active | Not Active | Not Active | 4.72 | 4.93 |  |  | 
7 | C[C@@H]1CC[C@@]2(OC1)O[C@H]1[C@@H](O)[C@H]3[C@@H]4CC[C@H]5C[C@@H](O[C@@H]6O[C@H](CO)[C@H](O[C@@H]7O[C@H](CO)C(O)[C@H](O[C@@H]8OC[C@@H](O)[C@H](O)[C@H]8O)[C@H]7O[C@@H]7O[C@H](CO)[C@H](O)[C@H](O[C@@H]8O[C@H](CO)[C@@H](O)[C@H](O)[C@H]8O)[C@H]7O)[C@H](O)[C@H]6O)[C@H](O)C[C@]5(C)[C@H]4CC[C@]3(C)[C@H]1[C@@H]2C (some centres not stated) [DIGITONIN] | Not Active | Not Active | Not Active | Not Active | Not Active | Not Active | Not Active | Not Active |  |  |  |  | 
8 | OC(CCCN1CCCCC1)(c1ccccc1)c1ccccc1 [DIPHENIDOL] | Not Active | Not Active | Not Active | Not Active | Not Active | Not Active | Not Active | Not Active |  |  |  |  | 
9 | C[C@H]1O[C@@H](n2cc(F)c(=O)[nH]c2=O)[C@H](O)[C@@H]1O [DOXIFLURIDINE] | Not Active | Not Active | Not Active | Not Active | Not Active | Not Active | Not Active | Not Active |  |  |  |  | 
10 | Cn1c(=O)c2c(ncn2CC(O)CO)n(C)c1=O (configuration not stated) [DYPHYLLINE] | Not Active | Not Active | Not Active | Not Active | Not Active | Not Active | Not Active | Not Active |  |  |  |  | 
11 | CC[C@H]1CN2CCc3cc(OC)c(OC)cc3[C@@H]2C[C@@H]1C[C@H]1NCCc2cc(OC)c(OC)cc21 [EMETINE] |  | Not Active | Not Active | Not Active | Not Active | Not Active | Not Active | Not Active |  |  | 6.74 | 7.59 | 
12 | C[C@@H](CO)NC(=O)[C@@H]1C=C2c3cccc4[nH]cc(c34)C[C@H]2N(C)C1 [ERGONOVINE] | Not Active | Not Active | Not Active | Not Active | Not Active | Not Active | Not Active | Not Active |  |  |  |  | 
13 | COC(=O)CCc1ccc(OCC(O)CNC(C)C)cc1 (configuration not stated) [ESMOLOL] | Not Active | Not Active | Not Active | Not Active | Not Active | Not Active | Not Active | Not Active |  |  |  |  | 
14 | CCC1(C)CC(=O)NC1=O (configuration not stated) [ETHOSUXIMIDE] | Not Active | Not Active | Not Active | Not Active | Not Active | Not Active | Not Active | Not Active |  |  |  |  | 
15 | C#C[C@]1(OC(C)=O)CC[C@H]2[C@@H]3CCC4=C[C@@H](OC(C)=O)CC[C@@H]4[C@H]3CC[C@@]21C [ETHYNODIOL DIACETATE] | Not Active | Not Active | Not Active | Not Active | Not Active | Not Active | Not Active | Not Active |  |  |  |  | 
16 | COc1cc([C@@H]2c3cc4c(cc3[C@@H](O[C@@H]3O[C@@H]5CO[C@@H](C)O[C@H]5[C@H](O)[C@H]3O)[C@H]3COC(=O)[C@H]23)OCO4)cc(OC)c1O [ETOPOSIDE] | Not Active | Not Active | Not Active | Not Active | Not Active | Not Active | Not Active | Not Active |  |  |  |  | 
17 | C=CCc1ccc(O)c(OC)c1 [EUGENOL] | Not Active | Not Active | Not Active | Not Active | Not Active | Not Active | Not Active | Not Active |  |  |  |  | 
18 | CC(C(=O)O)c1cccc(Oc2ccccc2)c1 (configuration not stated) [FENOPROFEN] | Not Active | Not Active | Not Active | Not Active | Not Active | Not Active | Not Active | Not Active |  |  |  |  | 
19 | CC(C)(C)NC(=O)[C@H]1CC[C@H]2[C@@H]3CC[C@H]4NC(=O)C=C[C@]4(C)[C@H]3CC[C@]12C [FINASTERIDE] | Not Active | Not Active | Not Active | Not Active | Not Active | Not Active | Not Active | Not Active |  |  |  |  | 
20 | COc1ccc2c3c1O[C@H]1C[C@@H](O)C=C[C@@]31CCN(C)C2 [GALANTAMINE] | Not Active | Not Active | Not Active | Not Active | Not Active | Not Active | Not Active | Not Active |  |  |  |  | 
21 | Nc1ccn([C@@H]2O[C@H](CO)[C@@H](O)C2(F)F)c(=O)n1 [GEMCITABINE] | Not Active | Not Active | Not Active | Not Active | Not Active | Not Active | Not Active | Not Active |  |  |  |  | 
22 | CC(C)=CCC/C(C)=C/CO [GERANIOL] | Not Active | Not Active | Not Active | Not Active | Not Active | Not Active | Not Active | Not Active |  |  |  |  | 
23 | Oc1c(Cl)cc(Cl)c(Cl)c1Cc1c(O)c(Cl)cc(Cl)c1Cl [HEXACHLOROPHENE] |  | Not Active | Not Active |  |  | Not Active | Not Active | Not Active |  |  | 5.16 | 5.99 | 5.73
24 | NNc1nncc2ccccc12 [HYDRALAZINE] | Not Active | Not Active | Not Active | Not Active | Not Active | Not Active | Not Active | Not Active |  |  |  |  | 
25 | CC(=O)[C@@]1(O)CC[C@H]2[C@@H]3CCC4=CC(=O)CC[C@]4(C)[C@H]3CC[C@@]21C [HYDROXYPROGESTERONE] | Not Active | Not Active | Not Active | Not Active | Not Active | Not Active | Not Active | Not Active |  |  |  |  | 
26 | COC1=C(OC)C(=O)C(CCCCCCCCCCO)=C(C)C1=O [IDEBENONE] | Not Active | Not Active | Not Active | Not Active | Not Active | Not Active | Not Active | Not Active |  |  |  |  | 
27 | CC(C)NNC(=O)c1ccncc1 [IPRONIAZID] | Not Active | Not Active | Not Active | Not Active | Not Active | Not Active | Not Active | Not Active |  |  |  |  | 

— ChEMBL document CHEMBL1909046, “DrugMatrix in vitro pharmacology data”
